Experimental data as given in patent US20140249041A1, “Marker of Prostate Cancer” (Region Midtjylland, priority 2009, published 2014).

How the values were obtained:
SLC18A2 expression = SLC18A2 expression by real-time PCR in cell lines after epigenetic drug treatment; assay type: cell-based
Experimental: RNA Preparation, cDNA Synthesis and Quantitative RT-PCR Total RNA from cultured cells and prostate tissue samples was isolated with the RNeasy MinElute Cleanup Kit (Qiagen), as described elsewhere (20). First-strand cDNA synthesis was performed with SuperScript II Reverse Transcriptase (Invitrogen) using oligo(dT) priming. SLC18A2 expression was measured with TaqMan Gene Expression Assay Hs00161858_ml and TaqMan Universal PCR Master Mix on a real-time ABI PRISM 7500 Sequence Detection System (all from Applied Biosystems). For normalization, UBC expression was measured using primers 5′-GATTTGGGTCGCGGTTCTT-3′ (SEQ ID NO: 6) plus 5′-[…]-3′ (SEQ ID NO: 7) and SYBR GREEN PCR Master Mix (Applied Biosystems). All reactions were run in triplicates.
All cell lines were grown in RPMI 1640 with L-glutamin (Gibco, Invitrogen) supplemented with 10% fetal bovine serum, 100 U/ml penicillin and 100 μg/ml streptomycin. LNCaP, PC-3, DU145, and 22rv1 cells were obtained from ATCC, BPH-1 cells from DSMZ (Braunschweig, Germany), and PNT1A cells from ECACC. PSK-1 cells were kindly provided by Dr. Adrie van Boekhoven (University of Colorado), VCaP and DuCaP cells by Dr. Kenneth Pienta (University of Michigan), and H69 and H69A cells by Dr. Marie Stampe Ostenfeld (Danish Cancer Society, Copenhagen, Denmark). Cell lines were treated with 1 μM 5-aza-2′-deoxycytidine (Sigma) for 48 h and allowed 5 days recovery in complete medium. Four cell lines were given a combination of 1 μM 5-aza-2′-deoxycytidine (48 h treatment plus 5 days recovery) and 1 mM 4-phenylbutyric acid (Sigma) (continuously for 7 days). Mock treated cells were given buffer only. Growth media were changed daily and cells harvested on day 7. All experiments were performed in duplicate and repeated 2-3 times.

[1] = test system: SLC18A2 promoter CpG island; assay: Bisulfite sequencing of SLC18A2 CpG island in cell lines before and after epigenetic drug treatment; assay type: cell-based; settings: PSK-1 cells; 1 μM 5-aza-2′-deoxycytidine; from 69% before treatment
Experimental: For bisulfite sequencing, genomic DNA from prostate cell lines and carefully selected 20-μm sections of fresh-frozen Tissue-tek-embedded BPH, adenocarcinoma and adjacent non-malignant prostate tissue samples was isolated using the PUREGENE DNA Purification Kit (Gentra Systems) with proteinase K treatment (100 units, 30 min, 37 C), as previously described (29). Laser-microdissection was performed as described in (31). DNA was bisulfite converted using the MethylEasy DNA Bisulfite Modification Kit (Human Molecular Signaling, Sydney, Australia). The SLC18A2 promoter CpG island was PCR amplified with TEMPase Hot Start DNA Polymerase (Ampliqon) using primers 5′-[…]-3′ (SEQ ID NO: 8) and 5′-[…]-3′ (SEQ ID NO: 9). Gel purified (illustra GFX PCR DNA and Gel Band Purification Kit; GE Healthcare) amplicons were subcloned into the pCR4-TOPO vector (Invitrogen) and several clones sequenced using M13 forward and reverse primers. Clinicopathological data from patients undergoing methylation analysis is compiled in FIG. 4.
All cell lines were grown in RPMI 1640 with L-glutamin (Gibco, Invitrogen) supplemented with 10% fetal bovine serum, 100 U/ml penicillin and 100 μg/ml streptomycin. LNCaP, PC-3, DU145, and 22rv1 cells were obtained from ATCC, BPH-1 cells from DSMZ (Braunschweig, Germany), and PNT1A cells from ECACC. […]

For Nc1ncn([C@H]2C[C@H](O)[C@@H](CO)O2)c(=O)n1 [5-aza-2′-deoxycytidine], the “induction of SLC18A2 expression” value (SLC18A2 expression; H69A cells (derived adherent line), 1 μM 5-aza-2′-deoxycytidine) was “not observed”, the “induction of SLC18A2 expression” value (SLC18A2 expression; H69 cells, 1 μM 5-aza-2′-deoxycytidine 48 h plus 5 days recovery) was “induced SLC18A2 expression” and the “induction of SLC18A2 expression” value (SLC18A2 expression; PSK-1 cells, 1 μM 5-aza-2′-deoxycytidine 48 h plus 5 days recovery) was “induced SLC18A2 expression”. For the same compound, the “CpG island methylation after treatment” value [1] was 11%.
